Measured values published in ChEMBL document CHEMBL3397029, “Development of potent dopamine-norepinephrine uptake inhibitors (DNRIs) based on a (2S,4R,5R)-2-benzhydryl-5-((4-methoxybenzyl)amino)tetrahydro-2H-pyran-4-ol molecular template” (Bioorg Med Chem, 2015).

Key:
[1] = target: Sodium-dependent dopamine transporter (Rattus norvegicus, UniProt P23977); assay: Inhibition of [ring 2,5,6-3H]dopamine reuptake in rat striatum DAT; type: tissue-based
[2] = target: Norepinephrine transporter (Rattus norvegicus, UniProt Q9WTR4); assay: Inhibition of [ring 2,5,6-3H]dopamine reuptake in rat cerebral cortex NET; type: tissue-based
[3] = target: Sodium-dependent serotonin transporter (Rattus norvegicus, UniProt P31652); assay: Inhibition of [1,2-3H]serotonin reuptake in rat cerebral cortex SERT; type: tissue-based
Rattus norvegicus [4] = species on record: Rattus norvegicus; assay: Selectivity ratio of Ki for rat striatum DAT to Ki for rat cerebral cortex SERT; type: tissue-based
Rattus norvegicus [5] = species on record: Rattus norvegicus; assay: Selectivity ratio of Ki for rat cerebral cortex NET to Ki for rat cerebral cortex SERT
[6] = target: Sodium-dependent serotonin transporter (Rattus norvegicus) (UniProt P31652); assay: Ratio of fluoxetine Ki to compound Ki for rat cerebral cortex SERT; type: tissue-based
Sequence of Sodium-dependent serotonin transporter (Rattus norvegicus) (P31652 whole entry): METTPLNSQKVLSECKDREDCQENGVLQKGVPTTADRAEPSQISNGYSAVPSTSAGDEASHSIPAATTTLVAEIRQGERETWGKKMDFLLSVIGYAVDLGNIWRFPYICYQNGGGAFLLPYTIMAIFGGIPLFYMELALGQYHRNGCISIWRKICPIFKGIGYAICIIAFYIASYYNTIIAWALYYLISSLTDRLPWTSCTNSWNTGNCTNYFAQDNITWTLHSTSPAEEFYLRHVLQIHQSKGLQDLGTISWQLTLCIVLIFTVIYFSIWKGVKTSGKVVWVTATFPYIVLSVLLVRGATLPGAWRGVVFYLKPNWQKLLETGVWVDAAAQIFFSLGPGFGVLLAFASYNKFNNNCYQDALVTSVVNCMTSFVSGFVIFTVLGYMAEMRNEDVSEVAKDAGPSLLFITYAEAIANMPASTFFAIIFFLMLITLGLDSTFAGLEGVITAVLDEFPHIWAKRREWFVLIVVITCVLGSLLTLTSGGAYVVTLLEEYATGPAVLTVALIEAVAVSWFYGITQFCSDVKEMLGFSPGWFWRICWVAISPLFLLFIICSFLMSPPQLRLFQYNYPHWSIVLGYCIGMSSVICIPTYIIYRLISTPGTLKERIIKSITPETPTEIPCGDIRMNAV

Sequence of Norepinephrine transporter (Q9WTR4 whole entry): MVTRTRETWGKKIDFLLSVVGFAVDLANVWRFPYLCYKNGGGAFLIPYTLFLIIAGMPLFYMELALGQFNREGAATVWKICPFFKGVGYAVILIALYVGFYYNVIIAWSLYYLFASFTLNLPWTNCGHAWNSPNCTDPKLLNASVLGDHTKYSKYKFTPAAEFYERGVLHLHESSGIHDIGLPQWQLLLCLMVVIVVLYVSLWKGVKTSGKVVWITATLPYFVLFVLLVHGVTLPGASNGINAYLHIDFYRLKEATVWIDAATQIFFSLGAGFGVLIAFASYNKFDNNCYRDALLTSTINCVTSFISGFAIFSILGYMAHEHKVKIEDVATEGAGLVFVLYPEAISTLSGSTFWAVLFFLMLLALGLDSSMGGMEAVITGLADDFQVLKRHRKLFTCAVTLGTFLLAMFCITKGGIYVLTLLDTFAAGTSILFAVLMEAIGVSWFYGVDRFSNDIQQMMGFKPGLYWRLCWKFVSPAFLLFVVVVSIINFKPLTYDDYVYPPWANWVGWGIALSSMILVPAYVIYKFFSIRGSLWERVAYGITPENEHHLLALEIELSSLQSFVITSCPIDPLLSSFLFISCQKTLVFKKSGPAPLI
Sequence of Sodium-dependent serotonin transporter (P31652 whole entry): as the sequence (P31652 whole entry) above
Sequence of Sodium-dependent dopamine transporter (P23977 whole entry): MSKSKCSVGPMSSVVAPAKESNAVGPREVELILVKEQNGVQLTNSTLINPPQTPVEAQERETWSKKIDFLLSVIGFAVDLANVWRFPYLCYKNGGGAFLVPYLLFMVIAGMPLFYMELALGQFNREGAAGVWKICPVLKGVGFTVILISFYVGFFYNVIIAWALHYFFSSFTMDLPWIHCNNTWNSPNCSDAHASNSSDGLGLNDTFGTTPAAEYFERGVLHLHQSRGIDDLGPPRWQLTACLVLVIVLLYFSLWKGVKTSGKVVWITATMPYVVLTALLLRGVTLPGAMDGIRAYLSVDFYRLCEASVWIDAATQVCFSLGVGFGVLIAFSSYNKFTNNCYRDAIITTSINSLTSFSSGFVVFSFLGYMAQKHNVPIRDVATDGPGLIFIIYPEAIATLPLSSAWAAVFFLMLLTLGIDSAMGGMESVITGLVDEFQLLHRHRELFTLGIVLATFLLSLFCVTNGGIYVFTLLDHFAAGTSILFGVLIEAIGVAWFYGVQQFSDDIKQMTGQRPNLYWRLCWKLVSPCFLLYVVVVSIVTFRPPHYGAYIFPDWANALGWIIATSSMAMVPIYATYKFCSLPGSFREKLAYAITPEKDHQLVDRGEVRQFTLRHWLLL

SMILES	Ki [2] [nM]	Ki [3] [nM]	also measured
Oc1ccc(CN[C@@H]2CO[C@H](C(c3ccc(F)cc3)c3ccc(F)cc3)C[C@H]2O)cc1F	7.37	–	Ki [1]: 13.1 nM
Oc1cc(O)cc(CN[C@@H]2CO[C@H](C(c3ccccc3)c3ccccc3)C[C@H]2O)c1	152	–	–
O[C@@H]1C[C@@H](C(c2ccccc2)c2ccccc2)OC[C@H]1NCc1ccc2occc2c1	33.6	–	–
COc1ccc(CN[C@@H]2CO[C@H](C(c3ccccc3)c3ccccc3)C[C@H]2O)c(F)c1	9.33	64	Ki [1]: 51.8 nM
Oc1ccc(CN[C@H]2CC[C@@H](C(c3ccc(F)cc3)c3ccc(F)cc3)OC2)cc1	13.4	334	–
O[C@@H]1C[C@@H](C(c2ccc(F)cc2)c2ccc(F)cc2)OC[C@H]1NCc1ccc2occc2c1	26.5	–	–
COc1ccc(CN[C@@H]2CO[C@H](C(c3ccccc3)c3ccccc3)C[C@H]2O)cc1F	41.6	9.02	Ki [1]: 48.2 nM
COc1ccc(CN[C@@H]2CO[C@H](C(c3ccccc3)c3ccccc3)C[C@H]2O)cn1	38.1	42.2	Ki [1]: 44.1 nM
COc1cccc(CN[C@@H]2CO[C@H](C(c3ccccc3)c3ccccc3)C[C@H]2O)c1	5.85	–	–
COc1cccc(CN[C@@H]2CO[C@H](C(c3ccc(F)cc3)c3ccc(F)cc3)C[C@H]2O)c1	28.8	–	–
COc1cc(CN[C@@H]2CO[C@H](C(c3ccccc3)c3ccccc3)C[C@H]2O)ccc1O	33.7	223	–
COc1ccc(CN[C@@H]2CO[C@H](C(c3ccccc3)c3ccccc3)C[C@H]2O)cc1O	30.2	–	–
c1ccc(C(c2ccccc2)[C@@H]2CC[C@H](NCc3ccc4occc4c3)CO2)cc1	25.2	–	Ratio Ki (Rattus norvegicus [4]): 115; Ratio Ki (Rattus norvegicus [5]): 35; Ratio Ki [6]: 20
COc1cc(CN[C@@H]2CO[C@H](C(c3ccc(F)cc3)c3ccc(F)cc3)C[C@H]2O)ccc1O	4.76	–	–
COc1cc(O)cc(CN[C@@H]2CO[C@H](C(c3ccccc3)c3ccccc3)C[C@H]2O)c1	44.2	–	–
COc1ccc(CN[C@@H]2CO[C@H](C(c3ccc(F)cc3)c3ccc(F)cc3)C[C@H]2O)cn1	28.4	–	–
COc1cc(O)cc(CN[C@@H]2CO[C@H](C(c3ccc(F)cc3)c3ccc(F)cc3)C[C@H]2O)c1	4.91	–	–
O[C@@H]1C[C@@H](C(c2ccc(F)cc2)c2ccc(F)cc2)OC[C@H]1NCc1ccc2c(c1)CCO2	25.8	–	–
O[C@@H]1C[C@@H](C(c2ccc(F)cc2)c2ccc(F)cc2)OC[C@H]1NCc1ccc2c(c1)OCO2	10.2	400	–
